Measurements from BindingDB's records for patent US20240002393 (Hoffmann-La Roche, 2024).

Assays:
[1] = biological target: T1, Gamma-aminobutyric acid receptor subunit alpha-1/beta-3/gamma-2 (Homo sapiens, UniProt P14867+P18507+P28472)
T1 sequence (P14867 whole entry): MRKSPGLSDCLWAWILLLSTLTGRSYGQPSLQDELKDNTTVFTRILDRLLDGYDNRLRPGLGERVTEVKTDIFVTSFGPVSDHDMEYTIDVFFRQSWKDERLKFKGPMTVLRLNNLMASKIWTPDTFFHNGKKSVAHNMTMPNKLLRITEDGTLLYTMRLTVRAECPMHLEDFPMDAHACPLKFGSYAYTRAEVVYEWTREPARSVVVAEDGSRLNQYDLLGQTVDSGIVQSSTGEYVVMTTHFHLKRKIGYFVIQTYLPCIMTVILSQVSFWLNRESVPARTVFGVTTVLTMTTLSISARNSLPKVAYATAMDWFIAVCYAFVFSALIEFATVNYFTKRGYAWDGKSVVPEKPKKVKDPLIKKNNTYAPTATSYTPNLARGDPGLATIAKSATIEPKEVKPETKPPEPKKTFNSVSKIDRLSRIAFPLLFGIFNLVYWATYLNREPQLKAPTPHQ
T1 sequence (P18507 whole entry): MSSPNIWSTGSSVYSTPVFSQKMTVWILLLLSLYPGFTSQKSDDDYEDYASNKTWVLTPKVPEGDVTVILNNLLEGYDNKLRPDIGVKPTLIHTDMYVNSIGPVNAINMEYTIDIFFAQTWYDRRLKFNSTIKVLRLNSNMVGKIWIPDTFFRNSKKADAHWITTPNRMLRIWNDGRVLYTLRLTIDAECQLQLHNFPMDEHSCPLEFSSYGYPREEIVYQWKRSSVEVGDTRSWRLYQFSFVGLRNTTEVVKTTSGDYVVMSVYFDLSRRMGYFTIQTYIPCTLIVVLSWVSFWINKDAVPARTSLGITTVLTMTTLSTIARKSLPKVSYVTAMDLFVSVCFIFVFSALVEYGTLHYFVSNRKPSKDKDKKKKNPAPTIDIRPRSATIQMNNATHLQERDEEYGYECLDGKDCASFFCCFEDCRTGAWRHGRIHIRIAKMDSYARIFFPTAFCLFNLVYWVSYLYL
T1 sequence (P28472 whole entry): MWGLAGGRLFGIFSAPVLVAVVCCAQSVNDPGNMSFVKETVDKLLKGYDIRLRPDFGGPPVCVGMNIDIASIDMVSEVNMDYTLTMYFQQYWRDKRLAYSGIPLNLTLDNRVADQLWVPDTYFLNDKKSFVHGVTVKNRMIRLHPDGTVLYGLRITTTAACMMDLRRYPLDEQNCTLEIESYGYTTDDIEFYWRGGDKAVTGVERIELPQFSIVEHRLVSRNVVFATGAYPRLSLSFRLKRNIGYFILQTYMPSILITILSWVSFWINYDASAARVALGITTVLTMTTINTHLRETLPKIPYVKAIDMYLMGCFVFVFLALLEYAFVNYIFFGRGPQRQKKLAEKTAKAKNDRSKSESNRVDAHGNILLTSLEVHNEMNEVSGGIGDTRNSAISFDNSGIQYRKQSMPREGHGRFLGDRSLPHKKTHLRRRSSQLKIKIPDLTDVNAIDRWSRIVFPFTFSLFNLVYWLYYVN

[2] = biological target: T2, Gamma-aminobutyric acid receptor subunit alpha-2/beta-2/gamma-1 (Human, UniProt P47869+P47870+Q8N1C3); assay: Electrophysiology Assay
T2 sequence (Q8N1C3 whole entry): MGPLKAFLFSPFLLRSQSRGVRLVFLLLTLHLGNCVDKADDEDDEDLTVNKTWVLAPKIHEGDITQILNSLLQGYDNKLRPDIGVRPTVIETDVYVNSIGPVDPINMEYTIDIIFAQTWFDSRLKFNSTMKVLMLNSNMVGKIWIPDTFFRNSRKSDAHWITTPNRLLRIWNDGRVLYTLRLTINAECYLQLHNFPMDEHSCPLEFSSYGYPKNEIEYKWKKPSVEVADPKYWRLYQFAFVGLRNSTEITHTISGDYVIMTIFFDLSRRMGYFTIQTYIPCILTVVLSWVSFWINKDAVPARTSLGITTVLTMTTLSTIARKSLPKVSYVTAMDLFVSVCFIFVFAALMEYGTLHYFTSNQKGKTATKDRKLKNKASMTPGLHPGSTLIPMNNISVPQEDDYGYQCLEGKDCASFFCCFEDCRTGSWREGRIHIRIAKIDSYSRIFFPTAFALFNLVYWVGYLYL
T2 sequence (P47869 whole entry): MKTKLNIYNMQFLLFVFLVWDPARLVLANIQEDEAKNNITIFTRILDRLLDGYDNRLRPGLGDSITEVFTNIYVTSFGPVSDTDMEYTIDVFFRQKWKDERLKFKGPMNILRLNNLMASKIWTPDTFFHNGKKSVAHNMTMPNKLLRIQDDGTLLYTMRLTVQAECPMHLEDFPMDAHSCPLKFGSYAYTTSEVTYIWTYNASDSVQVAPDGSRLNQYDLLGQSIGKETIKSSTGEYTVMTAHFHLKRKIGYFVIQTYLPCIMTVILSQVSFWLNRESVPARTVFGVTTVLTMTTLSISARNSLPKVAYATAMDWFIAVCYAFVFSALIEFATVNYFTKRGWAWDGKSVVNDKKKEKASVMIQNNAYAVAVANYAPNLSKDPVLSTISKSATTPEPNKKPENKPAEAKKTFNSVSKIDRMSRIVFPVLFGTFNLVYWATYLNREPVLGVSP
T2 sequence (P47870 whole entry): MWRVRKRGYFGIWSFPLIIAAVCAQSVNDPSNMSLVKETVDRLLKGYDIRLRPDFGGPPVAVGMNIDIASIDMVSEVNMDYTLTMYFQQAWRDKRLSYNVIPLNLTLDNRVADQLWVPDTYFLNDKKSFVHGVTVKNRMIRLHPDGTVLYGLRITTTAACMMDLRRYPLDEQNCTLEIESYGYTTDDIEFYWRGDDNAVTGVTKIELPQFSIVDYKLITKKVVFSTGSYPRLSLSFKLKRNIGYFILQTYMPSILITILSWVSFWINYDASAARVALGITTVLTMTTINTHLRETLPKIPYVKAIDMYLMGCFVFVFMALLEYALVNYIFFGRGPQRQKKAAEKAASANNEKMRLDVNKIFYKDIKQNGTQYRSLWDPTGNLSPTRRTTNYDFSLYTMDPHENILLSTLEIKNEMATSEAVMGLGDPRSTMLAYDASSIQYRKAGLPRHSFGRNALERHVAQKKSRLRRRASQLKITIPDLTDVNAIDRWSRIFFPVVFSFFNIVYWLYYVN
Protocol: Table 2: Electrophysiological experiments were performed using the Roboocyte instrument (MultiChannelSystems, Reutlingen, Germany) on days 3 to 5 after the micro-injection of mRNA. During the experiment the oocytes were constantly superfused by a solution containing (in mM) NaCl 90, KCl 1, HEPES 5, MgCl2 1 CaCl2 1 (pH 7.4). Oocytes were impaled by two glass microelectrodes (resistance: 0.5-0.8 MΩ) which were filled with a solution containing KCl 1M+K-acetate 1.5 M and voltage-clamped to −80 mV. The recordings were performed at room temperature using the Roboocyte two-electrode voltage clamp system (Multichannelsystem). After an initial equilibration period of 1.5 min GABA was added for 1.5 min at a concentration evoking approximately 20% of a maximal current response (EC20). After another rest interval of 2.5 min GABA was again added evoking a response of similar amplitude and shape. […] Current traces were recorded at a digitization rate of 10 Hz during and shortly before and after the GABA application.

`CCc1nnc2n1-c1ccc(C(F)(F)F)c(Cl)c1C(c1c(F)cccc1F)=N[C@H]2C` [US20240002393, Example 108] showed a Ki [1] of 2370 nM and a Ki [2] of 47 nM.
